# Values joined by “and” are separate entries in the source; they are usually repeats but may differ in a detail not shown here. Equal values may be shown once. Read-outs that look alike come from different tables or passages of the source.
# Assays:
# Assay in all cases: In vitro determination of minimum inhibitory concentration (MIC), serial dilution
# Format in all cases: cell-based
# Aspergillus fumigatus = test system: Aspergillus fumigatus
# Protocol: (§1) The antimycotic activities of the compounds were measured by in vitro determination of the minimum inhibitory concentration (MIC) for yeasts, molds and dermatophytes.
# (§2) 6 dermatophytes, 2 yeasts and 4 molds were used for testing with fungi, as follows:
# (§3) The minimum inhibitory concentration (MIC) was determined in serial dilution tests in test tubes. The volume of the liquid nutrient medium in each test tube was 4.5 ml.
# (§4) The substances were dissolved in DMSO and diluted with sterile distilled water to 10 concentrations (100, 50, 25, 12.5, 6.25, 3.12, 1.56, 0.78, 0.39 and 0.19 μg/ml). 0.5 ml of each of these dilution steps was added to liquid nutrient medium. Thus, a constant concentration of solvent in all the nutrient media was ensured, irrespective of the active compound concentration.
# (§5) A comparison solution which contained only the solvent in appropriate concentration was included when carrying out each of the tests.
# (§6) The individual strains were maintained on Sabouraud/beerwort agar slants and, before they were used in a test, they underwent a passage on a modified Sabouraud liquid nutrient medium. The strains were then harvested, washed and converted into a suspension of McFaerland 3 in the case of yeasts and molds and of McFaerland 4-5 in the case of dermatophytes.
# (§7) The amount of material inoculated (inoculum) was 100 μl/test tube (inoculated densities: yeasts about 10^3 /ml, molds about 10^4 /ml, dermatophytes about 10^4 /ml). The pH of the liquid nutrient medium was 6.0. After inoculation had taken place the fungi were incubated at 22° C. for 14 days.
# (§8) The MIC was then determined. The concentration step at which growth was no longer visible on macroscopic inspection was used for the determination of the MIC. The comparison substance used was 1-(2-(2,4-dichlorophenyl)-2-(2,4-dichlorophenylmethoxy)ethyl)-1H-imidazole(compound A).
# Mucor mucedo plus = details: pH 6.0, 22° C., 14 days; for MIC: Mucor mucedo, 336 h, pH 6, Mucor mucedo plus
# Protocol: as §1, §2, §3, §4, §5, §6, §7, §8
# Absidia ramosa = details: pH 6.0, 22° C., 14 days; for MIC: Lichtheimia ramosa, 336 h, pH 6, Absidia ramosa; for MIC Abs.ra.: Absidia ramosa
# Protocol: as §1, §2, §3, §4, §5, §6, §7, §8
# Trichophyton verrucosum = details: pH 6.0, 22° C., 14 days; for MIC: 336 h, pH 6, Trichophyton verrucosum
# Protocol: as §1, §2, §3, §4, §5, §6, §7, §8
# Microsporum canis = details: pH 6.0, 22° C., 14 days; for MIC: 336 h, pH 6, Microsporum canis
# Protocol: as §1, §2, §3, §4, §5, §6, §7, §8
# [1] = test system: Trichophyton mentagrophytes; details: pH 6.0, 22° C., 14 days; for MIC: 336 h, pH 6, Trichophyton mentagrophytes
# Protocol: as §1, §2, §3, §4, §5, §6, §7, §8
# Trichophyton rubrum = details: pH 6.0, 22° C., 14 days; for MIC: 336 h, pH 6, Trichophyton rubrum
# Protocol: as §1, §2, §3, §4, §5, §6, §7, §8
# Epidermophyton floccosum = details: pH 6.0, 22° C., 14 days; for MIC: 336 h, pH 6, Epidermophyton floccosum
# Protocol: as §1, §2, §3, §4, §5, §6, §7, §8
# Candida tropicalis = details: 336 h
# Protocol: as §1, §2, §3, §4, §5, §6, §7, §8
# Microsporum gypseum = details: for MIC: Nannizzia gypsea, 336 h
# Protocol: as §1, §2, §3, §4, §5, §6, §7, §8
# Candida albicans = details: for MIC: 336 h
# Protocol: as §1, §2, §3, §4, §5, §6, §7, §8
# Mucor mucedo minus = details: pH 6.0, 22° C., 14 days; for MIC: Mucor mucedo, 336 h, pH 6, Mucor mucedo minus
# Protocol: as §1, §2, §3, §4, §5, §6, §7, §8
# [2] = pH 6, Candida tropicalis, pH 6.0, 22° C., 14 days, read-out: MIC C.trop
# [3] = pH 6, Microsporum gypseum, pH 6.0, 22° C., 14 days, read-out: MIC Mi.gyp
# [4] = pH 6, Candida albicans, pH 6.0, 22° C., 14 days, read-out: MIC C.alb
SMILES,MIC (Mucor mucedo plus) [µg/mL],MIC (Absidia ramosa) [µg/mL],MIC (Trichophyton verrucosum) [µg/mL],MIC (Microsporum canis) [µg/mL],MIC [1] [µg/mL],MIC (Trichophyton rubrum) [µg/mL],MIC (Epidermophyton floccosum) [µg/mL],MIC (Mucor mucedo minus) [µg/mL],"MIC Asp.fu. (Aspergillus fumigatus; 20160 min, pH 6)",MIC (Candida tropicalis; [2]) [µg/mL],MIC (Microsporum gypseum; [3]) [µg/mL],MIC (Candida albicans; [4]) [µg/mL],other results
"Clc1ccc(COC(Cn2ccnc2)c2ccc(Cl)cc2Cl)c(Cl)c1 (stereo not drawn) [A, 1-(2-(2,4-dichlorophenyl)-2-(2,4-dichlorophenylmethoxy)ethyl)-1H-imidazole, reference compound]",12.5,12.5,6.25,6.25,1.56,6.25,1.56,12.5,–,–,–,–,"MIC Asp.fu. (Aspergillus fumigatus; Aspergillus fumigatus, pH 6.0, 22° C., 14 days): 3,12 μg/ml; MIC (Candida tropicalis; pH 6, read-out: MIC C.trop): 12.5 µg/mL; MIC (Microsporum gypseum; pH 6, read-out: MIC Mi.gyp): 3.12 µg/mL; MIC (Candida albicans; pH 6, read-out: MIC C.alb): 12.5 µg/mL"
"Clc1ccc(C(Cn2ccnc2)NCCCSc2ccc(Br)cc2)c(Cl)c1 (stereo not drawn) [Compound 1, 1-(2-(2,4-Dichlorophenyl)-2-(3-(4-bromophenylthio)propylamino)ethyl)-1H-imidazole]",–,–,–,–,–,–,–,–,"1,56 μg/ml",–,–,–,"MIC Mu.mu+ (Mucor mucedo plus; Mucor mucedo plus): 6,25 μg/ml; MIC Abs.ra. (Absidia ramosa): 3,12 μg/ml; MIC Tri.ve. (Trichophyton verrucosum): 0,30 μg/ml; MIC Tri.me. [1]: 0,39 μg/ml; MIC Tri.ru. (Trichophyton rubrum): 0,39 μg/ml; MIC Ep.flo (Epidermophyton floccosum): 0,78 μg/ml; MIC Mi.gyp (Microsporum gypseum; Microsporum gypseum, pH 6.0, 22° C., 14 days): 0,39 μg/ml; MIC C.alb (Candida albicans; pH 6.0, 22° C., 14 days): 3,12 μg/ml; MIC Mu.mu- (Mucor mucedo minus; Mucor mucedo minus): 6,25 μg/ml"
"Clc1ccc(SCCCNC(Cn2ccnc2)c2ccc(Cl)cc2Cl)cc1 (stereo not drawn) [Compound 2, 1-(2-(2,4-dichlorophenyl)-2-(3-(4-chlorophenylthio)propylamino)ethyl)-1H-imidazole]",12.5,3.12,0.39,1.56,12.5,0.19,6.25,25,"3,12 μg/ml",1.56,3.12,3.12,–
"CN(CCCSCc1ccc(Cl)cc1)C(Cn1ccnc1)c1ccc(Cl)cc1Cl (stereo not drawn) [Compound 3, 1-(2-(2,4-Dichlorophenyl)-2-(N-methyl-3-(4-chlorobenzylthio)propylamino)ethyl)-1H-imidazole]",6.25,50,6.25,1.56,6.25,6.25,1.56,6.25,"25,0 μg/ml",0.78,6.25,3.12,–
Clc1ccc(OCCNC(Cn2cncn2)c2ccc(Cl)cc2Cl)cc1 (stereo not drawn) [Compound 14],12.5,100,12.5,12.5,12.5,6.25,3.12,6.25,100 µg/mL,12.5,6.25,12.5,–
Clc1ccc(C(Cn2cncn2)NCCSc2ccc(Br)cc2)c(Cl)c1 (stereo not drawn) [Compound 36],12.5,100,12.5,100,25,6.25,12.5,50,100 µg/mL,12.5,6.25,25,–
Cc1ccc(OCCCNC(Cn2cncn2)c2ccc(Cl)cc2Cl)cc1 (stereo not drawn) [Compound 52],3.12,100,3.12,3.12,6.25,3.12,3.12,12.5,"6,25 μg/ml",6.25,3.12,12.5,–
CN(CCCOc1ccc(Br)cc1)C(Cn1cncn1)c1ccc(Cl)cc1Cl (stereo not drawn) [Compound 62],3.12,50,1.56,3.12,1.56,3.12,0.78,3.12,"1,56 μg/ml",3.12,3.12,6.25,–
COc1ccc(OCCCNC(Cn2ccnc2)c2ccc(Cl)cc2Cl)cc1 (stereo not drawn) [Compound 67],–,100,6.25,50,100,–,100,–,–,50,25,–,"MIC Abs.ra. (Absidia ramosa): 50,0 μg/ml; MIC Mi.can (Microsporum canis): 25,0 μg/ml; MIC Tri.me. [1]: 50,0 μg/ml; MIC Ep.flo (Epidermophyton floccosum): 50,0 μg/ml"

# The next lines start with results.
MIC (Mucor mucedo plus) [µg/mL],MIC (Absidia ramosa) [µg/mL],MIC (Trichophyton verrucosum) [µg/mL],MIC (Microsporum canis) [µg/mL],MIC [1] [µg/mL],MIC (Trichophyton rubrum) [µg/mL],MIC (Epidermophyton floccosum) [µg/mL],MIC (Mucor mucedo minus) [µg/mL],"MIC Asp.fu. (Aspergillus fumigatus; 20160 min, pH 6)",MIC (Candida tropicalis; [2]) [µg/mL],MIC (Microsporum gypseum; [3]) [µg/mL],MIC (Candida albicans; [4]) [µg/mL],SMILES,other results
6.25,25,3.12,6.25,25,3.12,3.12,3.12,"25,0 μg/ml",6.25,6.25,12.5,Clc1ccc(SCCNC(Cn2cncn2)c2ccc(Cl)cc2Cl)cc1 (stereo not drawn) [Compound 33],–
3.12,6.25,0.78,0.78,0.78,0.78,0.78,3.12,"6,25 μg/ml",3.12,0.78,3.12,Clc1ccc(SCCNC(Cn2ccnc2)c2ccc(Cl)cc2Cl)cc1 (stereo not drawn) [Compound 34],–
6.25,12.5,1.56,6.25,1.56,1.56,1.56,6.25,"6,25 μg/ml",6.25,0.78,6.25,Clc1ccc(C(Cn2ccnc2)NCCSc2ccc(Br)cc2)c(Cl)c1 (stereo not drawn) [Compound 37],–
12.5,25,6.25,12.5,6.25,6.25,12.5,12.5,"12,5 μg/ml",12.5,6.25,25,COc1ccc(SCCNC(Cn2ccnc2)c2ccc(Cl)cc2Cl)cc1 (stereo not drawn) [Compound 39],–
12.5,12.5,3.12,–,6.25,3.12,–,25,–,–,3.12,6.25,Clc1ccc(C(Cn2ccnc2)NCCSc2ccc3ccccc3c2)c(Cl)c1 (stereo not drawn) [Compound 40],"MIC Ep.flo (Epidermophyton floccosum): 3,12 μg/ml and 6,25 μg/ml"
1.56,6.25,1.56,12.5,3.12,1.56,6.25,0.78,"0,78 μg/ml",3.12,3.12,12.5,Fc1ccc(OCCCNC(Cn2ccnc2)c2ccc(Cl)cc2Cl)cc1 (stereo not drawn) [Compound 56],–
3.12,6.25,1.56,1.56,6.25,0.78,3.12,1.56,"6,25 μg/ml",1.56,3.12,3.12,CN(CCCOc1ccc(Cl)cc1)C(Cn1ccnc1)c1ccc(Cl)cc1Cl (stereo not drawn) [Compound 60],–
6.25,3.12,1.56,1.56,6.25,0.78,3.12,6.25,"3,12 μg/ml",1.56,3.12,3.12,CN(CCCOc1ccc(I)cc1)C(Cn1ccnc1)c1ccc(Cl)cc1Cl (stereo not drawn) [Compound 65],–

# Source: patent US4812465A, “Triazole derivatives for use as antimycotic agents” (CL Pharma Aktiengesellschaft, priority 1986, dated 1989)
